Legend:
Assay type in all cases: cell-based
[1] = system: human mammary luminal progenitor (LP) cells; assay: Live-cell imaging of LP-derived organoids during elongation phase (cell movement, bead displacement, duct elongation)
Description: Live cell imaging was performed using a Leica SP8 lightning confocal microscope with an on-stage incubation system (Ibidi) regulating CO2, O2, humidity and temperature. Organoids were imaged during elongation phase between day 7 and 9 with a time separation of 10 min between each acquired image. For visualization, nuclei were labelled with 10 μM sirDNA (Spirochrome AG) 3 hours prior to the measurements. Accordingly, organoids were excited at 633 nm and the fluorescent signal was collected around 674 nm using a HCX PL APO 10×/0.40 CS dry objective. Bead displacements/deformation fields were visualized using ImageJ 1.48v. First, the fluorescence signal of the fluorescent nuclei at the first time step was summed up along the z-axis to visualize the shape of the organoid. Second the fluorescence channel of the beads was summed along the z-axis and subsequently summed up over all time steps. At last, both calculated pictures were merged into one image. Bead tracking was calculated using Matlab R2020b. First, the fluorescence channel of the beads was masked by an intensity threshold to reduce the background. Second, bead positions are defined by taking the center of an interpolated intensity grid. Third, individual bead tracks were calculated by matching bead coordinates in three consecutive images. Thereby, beads touching the boundaries or beads to close to each other were excluded to guarantee a correct tracking.
Analysis for structure prevalence, type, size and complexity was performed with GraphPad Prism 8. Nuclei velocity within the organoid was calculated via optical flow using the in Matlab implemented Farneback algorithm. By defining the branch axis, the velocities were separated in a parallel and orthogonal component. The directionality of nuclei migration was defined by calculating the ratio of parallel and orthogonal component. Consequently, at directionality equal to one parallel and orthogonal component are at the same order of magnitude. At higher or lower values, either parallel or orthogonal velocity component dominates. In order to visualize the migration patterns of individual cells, cells were manually tracked. Therefore, each nucleus was tracked three times and the resulting average path was calculated.
Collagen degradation via MMPs was inhibited by using 10 μM Marimastat (Merck, 444289), which was added to the medium of elongating organoids prior to imaging. E-cadherin blocking was performed by addition of an E-cadherin blocking-antibody HECD1 in a dilution of 1:25 after 5 d of organoid culture.

[2] = system: human mammary luminal progenitor (LP) cells; assay: Branched structure formation of single LP cells in collagen type I gels (carmine staining, quantification of structure type, size, complexity)
Description: Healthy mammary gland tissue was provided by the Nymphenburg Clinic for Plastic and Aesthetic Surgery and processed in accordance with the regulations of the ethics committee of the Ludwig-Maximilian University, Munich, Germany (proposal 19-989) as described previously^35,63. In brief, reduction mammoplasty tissue was minced with scalpels into 2-3 mm^3 pieces. Next, tissue was digested with 300 U/mL collagenase I and 100 U/mL hyaluronidase and 1 μg/mL insulin for approximately 16 hrs. Finally, fragments were either cryopreserved immediately or a single cell suspension was made using trypsin-EDTA and dispase. If cells were cryopreserved as fragments, they were turned into a single cell suspension upon thawing using trypsin-EDTA and dispase. Prior to experiments, single cell suspensions were filtered through a 40 μm cell strainer. Age and parity of donors used in this study are catalogued in Table 1 given directly below.
3D collagen type I gels were prepared as described previously^35,63 with modifications. Single cell suspensions were mixed with BLOM foundation, rat tail collagen type I (Corning) and neutralizing solution. The final collagen concentration was 1.3 mg/ml. If the pH of the solution was <7.4, the pH was adjusted by addition of NaOH (1 M) up to a volume of 1 μl per 100 μl polymerization solution. After polymerization for 1 hr, 2× concentrated full medium was added onto the gels in a 1:1 volume ratio to the gel. Gels were encircled with a pipette tip for detachment. For cells that had not been in culture previously, the first medium exchange (from now on with 1× concentrated medium) was done after 5 d and then every 2-3 d. In case of cells that had been in 2D culture before, the first medium exchange was done between 3 d and 5 d. For all experiments except ELDA, per 1 ml of gel, between 250 and 2000 LP cells were seeded. In case of B+ and LM cells, between 2000 and 7500 cells were seeded per 1 ml of gel.
Images of carmine stained structures were evaluated with ImageJ. The size of an organoid was determined with the ImageJ area tool. Here, all tips of the structure were virtually connected with the ImageJ area tool and size was defined as the area covered by the organoid. For assessment of complexity, the longest branch was identified within each structure. The hierarchy of all other branches relative to this longest branch was classified (see FIG. 6B).
Carmine staining solution was prepared with a concentration of 0.5 g/l carmine and 1.15 g/l aluminium potassium sulfate in distilled water. For staining of 3D structures, gels were fixed with 4% paraformaldehyde for 15 min and incubated with carmine staining solution overnight. Images were acquired on a Leica DM IL LED microscope using a HiPlan 10×/0.22 PH1 objective. Three PBS washing steps were performed in between all steps described above.

[3] = system: human mammary luminal progenitor (LP) cells; assay: Immunofluorescence of polarization markers in LP-derived organoids; conditions: BLOM-medium without Y-27632
Description: 2D cells for immunofluorescence were cultured in 96-wells with optically clear bottom (PerkinElmer, 6005550). Immunofluorescence was performed as described previously^35,63. In brief, 2D cells or 3D cells (in collagen type I gels) were fixed with 4% paraformaldehyde for 15 min. Cells were permeabilized with 0.2% Triton X-100 for 2 min (2D) and 10 min (3D) respectively. Blocking was performed with 10% donkey serum in 0.1% BSA for 1 hr (2D) and overnight at 4° C. (3D) respectively. Primary antibodies in 0.1% BSA were incubated for 1 hr (2D) and overnight at 4° C. (3D) respectively. Next, DAPI (167 ng/ml) was added for 2 min (2D) and 10 min (3D), respectively. Finally, Aqua-Poy/Mount mounting medium (Polysciences, 18606) was added to preserve staining. Three PBS washing steps were performed in between all steps described above. Images of cells grown in 2D were acquired on an Axio Imager. A M2m imaging microscope was used with a 40× objective. Images of cells grown in 3D were acquired on FLUOVIEW FV1000 inverted confocal laser scanning microscope equipped with four laser lines (405, 488, 543, and 633 nm) using UPLSAPO 60×, 40× and 20× objective lenses. Images were processed with Gimp 2.8.22 and ImageJ 1.52i.

[4] = 10 μM Marimastat during branch elongation phase

`CNC(=O)[C@@H](NC(=O)[C@H](CC(C)C)[C@H](O)C(=O)NO)C(C)(C)C` [Marimastat] was tested, and the “duct elongation / invasion of branch tips (in words)” value [1, 4] was “stopped the branch tips from further invading the matrix” and the “general cytotoxic effect (in words)” value [1, 4] was “excluding a general cytotoxic effect”.

With `Cc1ccc2c(c1)C(=O)[C@]1(O)CCN(c3ccc(N)cc3)C1=N2` [PAB, para-amino blebbistatin] the “branched structure phenotype when Y-27632 is replaced by PAB (in words)” value ([2]; BLOM-medium without Y-27632, PAB added, donors M16, M28, M44) was “able to induce a phenotype similar to the one created by Y-27632”.

In the case of `C[C@@H](N)[C@H]1CC[C@H](C(=O)Nc2ccncc2)CC1` [Y-27632], the “decrease in branched structure formation upon removal of Y-27632” value ([2]; BLOM-medium without Y-27632 (DMSO ctrl) vs with Y-27632 (5 μM), donors M35, M44, M45) is reported as 79%, the “change in size of branched structures upon removal of Y-27632” value ([2]; BLOM-medium without Y-27632 (DMSO ctrl) vs with Y-27632, size = area covered by organoid) is reported as −66% and the “organoids with tertiary or even more complex branches” value ([2]; control organoids in BLOM-medium with Y-27632 (only 6% without Y-27632)) is reported as 65%. For the same compound, the “formation of elongated branched structures (in words)” value ([2]; medium deprived of Y-27632) was “prevented the formation of elongated branched structures almost completely”, the “bead displacement / contractility (in words)” value ([1]; in the presence of ROCK inhibitor, collagen gels spiked with fluorescent beads) was “not completely abolished, but limited to the front of elongating branches” and the “directionality of cell migration within organoids (in words)” value ([1]; under ROCK inhibition (with Y-27632), nuclear labelling) was “primarily directed outwards in parallel to the axis of the extending branch”. The “apical-basal polarization of organoids (laminin, F-actin, lumen) (in words)” value [3] was “polarization was disturbed in the absence of ROCK inhibition”.

— US20240368563A1, “IN VITRO METHOD OF INVASIVE AND DUCTAL CELL GROWTH” (Helmholtz Zentrum München - Deutsches Forschungszentrum Für …, priority 2021, published 2024)
